In patent US20230233736A1, “ANTIMICROBIAL FORMULATIONS COMPRISING SILICONE” (AMICOAT AS, priority 2020, published 2023):

Tests used:
[1] = system: Candida tropicalis; assay: MIC microbroth dilution (CLSI); type: cell-based; conditions: ATCC750 - reference strain
[2] = system: Trichophyton mentagrophytes; assay: MIC microbroth dilution (CLSI); type: cell-based; conditions: G.R. Micro collection
[3] = system: Trichophyton interdigitale; assay: MIC microbroth dilution (CLSI); type: cell-based; conditions: G.R. Micro collection
[4] = system: Listeria monocytogenes; assay: MIC microbroth dilution (CLSI); type: cell-based; conditions: antibiotic-susceptible clinical isolate
Excerpt: (§1) Cation-adjusted Mueller-Hinton broth (Oxoid Ltd., Basingstoke, UK and Trek Diagnostic Systems Ltd., East Grinstead, UK) (supplemented with 5% laked horse blood for Streptococcus spp., Corynebacterium jeikeium and Listeria monocytogenes) was used for aerobic bacteria, with an initial inoculum of approximately 10^5 colony-forming units (CFU)/m L.

[5] = system: Salmonella sp; assay: MIC microbroth dilution (CLSI); type: cell-based
Excerpt: as §1

[6] = system: Shigella sp; assay: MIC microbroth dilution (CLSI); type: cell-based; conditions: antibiotic-susceptible clinical isolate
Excerpt: as §1

[7] = system: Staphylococcus saprophyticus; assay: MIC microbroth dilution (CLSI); type: cell-based; conditions: antibiotic susceptible clinical isolate
Excerpt: as §1

[8] = system: Bacteroides fragilis; assay: MIC microbroth dilution (CLSI); type: cell-based; set-up: unit not given beside the values; conditions: ATCC 25285; SBB
[9] = system: Eggerthella lenta; assay: MIC microbroth dilution (CLSI); type: cell-based; set-up: unit not given beside the values; conditions: ATCC 43055; SBB
[10] = system: Staphylococcus aureus FDA486; assay: Murine skin infection model, topical treatment; type: in vivo, mice; conditions: FIG. 1; cream or gel containing 2% (w/w), three treatments at three hourly intervals, compared to placebo
Experimental: (§2) The skin of mice was infected with Staphylococcus aureus or Streptococcus pyogenes and subsequently given a total of three treatments at three hourly intervals. Three hours after the last treatment, skin biopsies were collected and the number of colony forming units (CFUs) present in the skin sample was determined. Results are shown in FIGS. 1 and 2, expressed as the number of colony forming units per mouse.
In experiment 1 (FIG. 1), compound 2 was applied to the murine skin as part of either a cream or a gel containing 2% (w/w) of compound 2. The same cream or gel without compound 2 was used as a negative control (placebo).
as §2, with “3, 4” for “1”, “5” for “2,”
In experiment 1 (FIG. 3), compound 7 was applied to the murine skin as part of either a cream or a gel containing 2% (w/w) of compound 7. The same cream or gel without compound 7 was used as a negative control (placebo). Bactroban 2% cream was used as a positive control.
In experiment 3 (FIG. 5), compound 8 was applied in a 2% cream formulation on a Staphylococcus aureus FDA 486 infection in the murine skin infection model. A placebo cream and two known antibacterials, “Fucidin (fucidic acid) ointment 2%” and “Bactroban (mupericin) cream 2%” were used as controls.

[11] = system: Staphylococcus aureus, strain ATCC 25923; conditions: S. aureus ATCC 25923

CC(C)(C)c1cc(C(C)(C)C)c2[nH]c(C(C)(C)C)c(CC(NC(=O)C(N)CCCNC(=N)N)C(=O)NC(CCCNC(=N)N)C(=O)NCCc3ccccc3)c2c1 (stereo not drawn) [Compound 2]
MIC [1]: 4 | MIC [2]: 8 | MIC [3]: 8 | MIC [4]: 16 | MIC ([5]; antibiotic-susceptible clinical isolate): 8 | MIC ([5]; multi-drug resistant clinical isolate): 8 | MIC [6]: 8 | MIC [7]: 1 | MIC [8]: 64 | MIC [9]: 32 | number of colony forming units (CFU) in skin biopsy [10]: number of CFUs was reduced | MIC [11]: <3 µM
